Assay results published in article PMC9533879 (European Journal of Medicinal Chemistry, 2021).
pIC50: −log10 of the molar value.

Experiments:
[1] = tested on: Vero cell culture
[2] = tested on: Vaccinia virus (strain Copenhagen); details: for pIC50: read-out: IC50 Vaccinia

Compound	CC50 [1] [µM]	SI (CC50/IC50) Vaccinia [2]	pIC50 [2]	times less active than the reference compound tecovirimat [2]
3,5-Dimethyl-N^1-(4-(trifluoromethyl)benzoyl)adamantane-1-carbohydrazide [Compound 17]	> 254	30.9/>8.2	4.51	
3-Ethyl-N^1-(4-(trifluoromethyl)benzoyl)adamantane-1-carbohydrazide [Compound 18]	47	12.53/3.75	4.90	
O=C(NC12CC3CC(CC(C3)C1)C2)c1ccc(C(F)(F)F)cc1 [Compound 5, N-(Adamantan-1-yl)-4-(trifluoromethyl)benzamide]				50
CCC12CC3CC(C1)CC(NC(=O)c1ccc(C(F)(F)F)cc1)(C3)C2 [Compound 6, N-(3-Ethylаdamantan-1-yl)-4-(trifluoromethyl)benzamide]		4.1/>68		
CN(C(=O)c1ccc(C(F)(F)F)cc1)C12CC3CC(CC(C3)C1)C2 [Compound 7, N-(Adamantan-1-yl)-N-methyl-4-(trifluoromethyl)benzamide]		4.85/>61		
O=C(NCC12CC3CC(CC(C3)C1)C2)c1ccc(Br)cc1 [Compound 9, N-((Adamantan-1-yl)methyl)-4-bromobenzamide]		8.3/28		
O=C(NC1C2CC3CC(C2)CC1C3)c1ccc(Br)cc1 (centres unmarked) [Compound 11, N-(Adamantan-2-yl)-4-bromobenzamide]		3.06/>98		
O=C(NNC(=O)C12CC3CC(CC(C3)C1)C2)c1ccc(C(F)(F)F)cc1 [Compound 16, N^1-(4-(Trifluoromethyl)benzoyl)adamantane-1-carbohydrazide]	> 273	1.07/>255		
O=C(NNC(=O)c1ccc(C(F)(F)F)cc1)NC12CC3CC(CC(C3)C1)C2 [Compound 20, N^1-(Adamantan-1-yl)-2-(4-(trifluoromethyl)benzoyl)hydrazine-1-carboxamide]		36.26/2.6		
C/C(=N\NC(=O)c1ccc(C(F)(F)F)cc1)C12CC3CC(CC(C3)C1)C2 [Compound 31, N^1-(1-(Adamantan-1-yl)ethylidene)-4-(trifluoromethyl)benzohydrazide]		10.55/>26		
CC12CC3CC(C1)CC(NC(=O)c1ccc(C(F)(F)F)cc1)(C3)C2 [Compound 37]		8.98/>33		
(rac)-N^1-(1-(Adamantan-1-yl)ethyl)-4-(trifluoromethyl)benzohydrazide [Compound 32]	14	0.515/27	6.29	
N^1-(3-Ethyladamantan-1-yl)-4-(trifluoromethyl)benzohydrazide [Compound 36]	2.5	1.66/1.5	5.78	
N^1-(5-Chloroadamantan-2-yl)-4-(trifluoromethyl)benzohydrazide [Compound 28]	~215	3.52/61	5.45	
N^1-(Adamantan-1-yl)-4-(trifluoromethyl)benzohydrazide [Compound 35]	2.8			
N^1-(Adamantan-2-yl)-4-(trifluoromethyl)benzohydrazide [Compound 27]	> 296	2.8/>103	5.55	
